Experimental data taken from patent publication US10046050B2, “Targeting immunotherapy for amyloidosis” (UNIVERSITY OF TENNESSEE RESEARCH FOUNDATION, priority 2014, dated 2018).

Tests used:
[1] = test system: synthetic amyloid fibrils composed of rVλ6Wil (AL fibrils); experiment: EuLISA of murine 11-1F4 on synthetic amyloid fibrils with or without p66; type: binding; details: p66 added to fibril-coated wells
Procedure: (§1) To assess the interaction of 11-1F4 with synthetic amyloid fibrils, we evaluated the interaction of murine 11-1F4 with synthetic amyloid fibrils composed of the λ6 light chain Wil-associated with light chain (AL) amyloidosis, or Aβ(1-40), associated with Alzheimer's disease and cerebral amyloid angiopathy. More particularly, Costar high binding plates were coated with 50 μl per well of […] of synthetic amyloid fibrils composed of rVλ6Wil (AL fibrils) or Aβ(1-40) overnight at 37° C. The plates were washed with 1× solution of phosphate buffered saline with 0.05% (v/v) tween 20 (PBST)—similar wash steps were performed between each step. As a “blocking step” the plates were incubated for 1 h at 37° C. with 200 μl of 1% (w/v) BSA in PBS per well. The murine 11-1F4 mAb was added from 100 nM (in BSAT), as a starting concentration, and diluted 1:2 across the microplate and incubation for 1 h at 37° C. Biotinylated goat anti-mouse secondary antibodies (Sigma) were used at a 1:3000 dilution in BSAT. Europium-conjugated streptavidin (Perkin Elmer) was added (1:1000 dilution of stock) as a detection medium and the plate incubated for 1 h 37° C. […] was quantified following addition of enhancement solution (Perkin Elmer) and the time-resolved fluorescence measured using a Victor 3 Wallac plate reader (Perkin Elmer).

Aβ(1-40) fibrils = target: T1, Aβ(1-40) fibrils (Homo sapiens, UniProt P05067); experiment: as above; type: binding; details: p66 added to fibril-coated wells
T1 construct: synthetic amyloid fibrils composed of rVλ6Wil (AL fibrils) or Aβ(1-40); host or cells: synthetic peptide fibrils
Procedure: as §1

T1 sequence (P05067 672-711 limits assumed): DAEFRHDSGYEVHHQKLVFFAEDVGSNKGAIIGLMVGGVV

## KAQKAQAKQAKQAQKAQKAQAKQAKQAQKAQKAQAKQAKQ SVTVVT KHYAAFPENLLI [p66]
[1]
  reactivity of the 11-1F4 mAb with fibrils when p66 was added: enhanced
Aβ(1-40) fibrils
  reactivity of the 11-1F4 mAb with fibrils when p66 was added: enhanced
